Read-outs that look alike come from different tables or passages of the source.
How the values were obtained:
κ opioid receptor [1] = target: T1, κ opioid receptor (Homo sapiens (Human), UniProt P41145); assay: κ-opioid receptor [35S]GTPγS functional assay, HEK-293 or CHO cells; assay type: biochemical
Experimental: (§1) κ-Opioid Receptor Functional Assay Procedures: Functional [^35S]GTPγS binding assays were conducted as follows. κ opioid receptor membrane solution was prepared by sequentially adding final concentrations of 0.026 μg/μl κ membrane protein (in-house), 10 μg/mL saponin, 3 μM GDP and 0.20 nM [^35S]GTPγS to binding buffer (100 mM NaCl, 10 mM MgCl2, 20 mM HEPES, pH 7.4) on ice. The prepared membrane solution (190 μl/well) was transferred to 96-shallow well polypropylene plates containing 10 μl of 20× concentrated stock solutions of agonist prepared in DMSO. Plates were incubated for 30 min at a temperature of about 25° C. with shaking. Reactions were terminated by rapid filtration onto 96-well Unifilter GF/B filter plates (Perkin Elmer, Shelton, Conn.) using a 96-well tissue harvester (Packard) and followed by three filtration washes with 200 μl ice-cold binding buffer (10 mM NaH2PO4, 10 mM Na2HPO4, pH 7.4). Filter plates were subsequently dried at 50° C. for 2-3 hours. Fifty μl/well scintillation cocktail (Perkin Elmer, Shelton, Conn.) was added and plates were counted in a Packard Top-Count for 1 min/well.
(§2) κ-Opioid Receptor Functional Data: κ GTP EC50 is the concentration of a compound providing 50% of the maximal response for the compound at a κ receptor.
(§3) κ GTP Emax (%) is the maximal effect elicited by a compound relative to the effect elicited by U69,593.
(§4) In TABLE 2, activity response of certain Compounds of the Invention to the μ-, δ- and κ-opioid receptors was determined as described above for functional assays using HEK-293 or CHO cells.

κ opioid receptor [2] = target: T1, κ opioid receptor; assay: κ-opioid receptor radioligand ([3H]-U69,593) dose-displacement binding assay; details: binding affinity
Experimental: κ-Opioid Receptor Binding Assay Procedures: Membranes from recombinantHEK-293 cells, CHO or U-2 OS cells expressing the recombinant human κ opioid receptor (κ) were prepared by lysing cells in ice cold hypotonic buffer (2.5 mM MgCl2, 50 mM HEPES, pH 7.4) (10 mL/10 cm dish) followed by homogenization with a tissue grinder/Teflon pestle. Membranes were collected by centrifugation at 30,000×g for 15 min at 4° C. and pellets were resuspended in hypotonic buffer to a final concentration of 1-3 mg/mL. Protein concentrations were determined using the BioRad protein assay reagent with bovine serum albumen as standard. Aliquots of κ receptor membranes were stored at −80° C.
Radioligand dose displacement assays used 0.4 nM [^3H]-U69,593 (GE Healthcare, Piscataway, N.J.; 40 Ci/mmole) with 15 μg membrane protein (recombinant κ opioid receptor expressed in HEK 293 cells; in-house prep) in a final volume of 200 μl binding buffer (5% DMSO, 50 mM Trizma base, pH 7.4). Non-specific binding was determined in the presence of 10 μM unlabeled naloxone or U69,593. All reactions were performed in 96-well polypropylene plates for 1 hour at a temperature of about 25° C. Binding reactions were terminated by rapid filtration onto 96-well Unifilter GF/C filter plates (Perkin Elmer, Shelton, Conn.) presoaked in 0.5% polyethylenimine (Sigma). Harvesting was performed using a 96-well tissue harvester (Perkin Elmer, Shelton, Conn.) followed by five filtration washes with 200 μl ice-cold binding buffer. Filter plates were subsequently dried at 50° C. for 1-2 hours. Fifty μl/well scintillation cocktail (Perkin Elmer, Shelton, Conn.) was added and plates were counted in a Packard Top-Count for 1 min/well.
(§5) In TABLE 1, binding affinity of certain Compounds of the Invention to the μ-, δ- and κ-opioid receptors was determined as described above.

μ-opioid receptor [3] = target: T2, μ-opioid receptor (Homo sapiens (Human), UniProt P35372); assay: μ-opioid receptor [35S]GTPγS functional assay, HEK-293 or CHO cells; assay type: biochemical
Experimental: (§6) μ-Opioid Receptor Functional Assay Procedures: [^35S]GTPγS functional assays were conducted using freshly thawed μ-receptor membranes prepared in-house from a cell line expressing recombinant μ opioid receptor in a HEK-293, CHO or U-2 OS cell background, or purchased from a commercial source (Perkin Elmer, Shelton, Conn.; or DiscovRx, Fremont, Calif.). Assay reactions were prepared by sequentially adding the following reagents to binding buffer (100 mM NaCl, 10 mM MgCl2, 20 mM HEPES, pH 7.4) on ice (final concentrations indicated): membrane protein (0.026 mg/mL), saponin ([…]), GDP ([…]) and [^35S]GTPγS (0.20 nM; Perkin Elmer, Shelton, Conn.). The prepared membrane solution (190 μl/well) was transferred to 96-shallow well polypropylene plates containing 10 μl of 20× concentrated stock solutions of the agonist [D-Ala^2, N-methyl-Phe^4 Gly-ol^5]-enkephalin (DAMGO) prepared in dimethyl sulfoxide (DMSO). Plates were incubated for 30 min at about 25° C. with shaking. Reactions were terminated by rapid filtration onto 96-well Unifilter GF/B filter plates (Perkin Elmer, Shelton, Conn.) using a 96-well tissue harvester (Perkin Elmer, Shelton, Conn.) followed by three filtration washes with 200 μl of ice-cold wash buffer (10 mM NaH2PO4, 10 mM Na2HPO4, pH 7.4). Filter plates were subsequently dried at 50° C. for 2-3 hours. BetaScint scintillation cocktail (Perkin Elmer, Shelton, Conn.) was added (50 μl/well) and plates were counted using a Packard Top-Count for 1 min/well. Data were analyzed using the sigmoidal dose-response curve fitting functions in GraphPad PRISM v. 3.0, or an in-house function for non-linear, sigmoidal dose-response curve-fitting.
(§7) μ-Opioid Receptor Functional Data: μ GTP EC50 is the concentration of a compound providing 50% of the maximal response for the compound at a μ-opioid receptor.
(§8) μ GTP Emax (%) is the maximal effect elicited by a compound relative to the effect elicited by DAMGO, a standard μ agonist. Generally, the μ GTP Emax (%) value measures the efficacy of a compound to treat or prevent pain or other Conditions.
as §4

μ-opioid receptor [4] = target: T2, μ-opioid receptor; assay: μ-opioid receptor radioligand ([3H]-diprenorphine) dose-displacement binding assay; details: binding affinity
Experimental: μ-Opioid Receptor Binding Assay Procedures: Radioligand dose-displacement binding assays for μ-opioid receptors used 0.3 nM [^3H]-diprenorphine (Perkin Elmer, Shelton, Conn.), with […] membrane protein/well in a final volume of 500 μl binding buffer (10 mM MgCl2, 1 mM EDTA, 5% DMSO, 50 mM HEPES, pH 7.4). Reactions were carried out in the absence or presence of increasing concentrations of unlabeled naloxone. All reactions were conducted in 96-deep well polypropylene plates for 2 hours at room temperature. Binding reactions were terminated by rapid filtration onto 96-well Unifilter GF/C filter plates (Perkin Elmer, Shelton, Conn.), presoaked in 0.5% polyethylenimine using a 96-well tissue harvester (Perkin Elmer, Shelton, Conn.) followed by performing three filtration washes with 500 μl of ice-cold binding buffer. Filter plates were subsequently dried at 50° C. for 2-3 hours. BetaScint scintillation cocktail (Perkin Elmer, Shelton, Conn.) was added (50 μl/well), and plates were counted using a Packard Top-Count for 1 min/well. The data were analyzed using the one-site competition curve fitting functions in GraphPad PRISM™ v. 3.0 or higher (San Diego, Calif.), or an in-house function for one-site competition curve-fitting.
as §5

μ-opioid receptor [5] = target: T2, μ-opioid receptor; assay: μ-opioid receptor [35S]GTPγS functional assay, U-2 OS cells; assay type: biochemical; details: for Emax: relative to DAMGO, U-2 OS cells
Experimental: as §6, §7, §8
(§9) The following TABLE 3 provides results on the activity response of certain Compounds of the Invention at the μ- and κ-opioid receptors determined as described above using U-2 OS cells.

κ opioid receptor [6] = target: T1, κ opioid receptor; assay: κ-opioid receptor [35S]GTPγS functional assay, U-2 OS cells; assay type: biochemical; details: for Emax: relative to U69,593, U-2 OS cells
Experimental: as §1, §2, §3, §9

[7] = relative to U69,593, HEK-293 or CHO cells
[8] = read-out: Opioid Receptor Ki (nM) κ
[9] = relative to DAMGO, HEK-293 or CHO cells

COc1ccc2c(c1)[C@]13CCN(CC4CC4)[C@H](C2)[C@@H]1CC[C@@]1(C3)NC(=O)NC1=O [Compound 6, (4bS,4′S,8aR,9R)-11-(cyclopropylmethyl)-3-methoxy-5,7,8,8a,9,10-hexahydrospiro[9,4b-(epiminoethano)phenanthrene-6,4′-imidazolidine]-2′,5′-dione]
EC50 (κ opioid receptor [1]): 1230 ± 380 nM
Emax (κ opioid receptor [1]; [7]): 89.7 ± 3.53%
Ki (κ opioid receptor [2]; [8]): 12.2 ± 2.61 nM
EC50 (μ-opioid receptor [3]): 1460 ± 121 nM
Emax (μ-opioid receptor [3]; [9]): 58.3 ± 5.24%

COc1ccc2c(c1)[C@]13CCN(Cc4ccccc4)[C@H](C2)[C@]1(O)CC[C@@]1(C3)NC(=O)NC1=O [Compound 11, (4bR,4′S,8aS,9R)-11-benzyl-8a-hydroxy-3-methoxy-5,7,8,8a,9,10-hexahydrospiro[9,4b-(epiminoethano)phenanthrene-6,4′-imidazolidine]-2′,5′-dione]
Ki (μ-opioid receptor [4]; bound given in μM, read-out: Opioid Receptor Ki μ): > 20 µM
Ki (κ opioid receptor [2]; bound given in μM, read-out: Opioid Receptor Ki κ): > 20000 nM

(4bS,4′S,8aR,9R)-11-(cyclopropylmethyl)-3-hydroxy-5,7,8,8a,9,10-hexahydrospiro[9,4b-(epiminoethano)phenanthrene-6,4′-imidazolidin]-2′-one [Compound 8]
EC50 (κ opioid receptor [1]; GTPγS, HEK-293 or CHO cells, read-out: Opioid Receptor κ EC50): 27.2 ± 8.1 nM
Opioid Receptor κ Emax (%) (κ opioid receptor [1]; [7]): 91.33 ± 5.04%
Ki (κ opioid receptor [2]; [8]): 0.2 ± 0.05 nM
EC50 (μ-opioid receptor [3]; GTPγS, HEK-293 or CHO cells, read-out: Opioid Receptor μ EC50): 7.39 ± 1.89 nM
Opioid Receptor μ Emax (%) (μ-opioid receptor [3]; [9]): 39.67 ± 3.28%

CN1CC[C@]23C[C@]4(CC[C@@]2(O)[C@H]1Cc1ccc(O)cc13)NC(=O)NC4=O [Compound 10, (4bR,4′S,8aS,9R)-3,8a-dihydroxy-11-methyl-5,7,8,8a,9,10-hexahydrospiro[9,4b-(epiminoethano)phenanthrene-6,4′-imidazolidine]-2′,5′-dione]
Ki (μ-opioid receptor [4]; read-out: Opioid Receptor Ki (nM) μ): 0.027 ± 0.00307 µM
Ki (κ opioid receptor [2]; [8]): 155 ± 29.5 nM

COc1ccc2c(c1)[C@]13CCN(CCc4ccccc4)[C@H](C2)[C@]1(O)CC[C@@]1(C3)NC(=O)NC1=O [Compound 20, (4bR,4′S,8aS,9R)-8a-hydroxy-3-methoxy-11-phenethyl-5,7,8,8a,9,10-hexahydrospiro[9,4b-(epiminoethano)phenanthrene-6,4′-imidazolidine]-2′,5′-dione]
EC50 (μ-opioid receptor [5]): 664 ± 113 nM
Emax (μ-opioid receptor [5]): 105 ± 1.23%
EC50 (κ opioid receptor [6]): > 20000 nM
Emax (κ opioid receptor [6]): 75.7 ± 11.5%

COc1ccc2c(c1)[C@]13CCN(CC4CC4)[C@H](C2)[C@]1(O)CC[C@@]1(CNC(=O)N1)C3 [Compound 4, (4bR,4′S,8aS,9R)-11-(cyclopropylmethyl)-8a-hydroxy-3-methoxy-5,7,8,8a,9,10-hexahydrospiro[9,4b-(epiminoethano)phenanthrene-6,4′-imidazolidin]-2′-one]
EC50 (κ opioid receptor [1]): 901 ± 389 nM
Emax (κ opioid receptor [1]; [7]): 44.3 ± 1.45%
Ki (κ opioid receptor [2]; [8]): 135 ± 38.1 nM
EC50 (μ-opioid receptor [3]): 809 ± 143 nM
Emax (μ-opioid receptor [3]; [9]): 20.7 ± 0.67%

COc1ccc2c(c1)[C@]13CCN(CCF)[C@H](C2)[C@]1(O)CC[C@@]1(C3)NC(=O)NC1=O [Compound 14, (4bR,4′S,8aS,9R)-1-(2-fluoroethyl)-8a-hydroxy-3-methoxy-5,7,8,8a,9,10-hexahydrospiro[9,4b-(epiminoethano)phenanthrene-6,4′-imidazolidine]-2′,5′-dione]
EC50 (μ-opioid receptor [5]): > 20000 nM
Emax (μ-opioid receptor [5]): 14.5%
EC50 (κ opioid receptor [6]): > 20000 nM
Emax (κ opioid receptor [6]): 110 ± 6.74%

N#CCN1C(=O)NC(=O)[C@@]12CC[C@@]1(O)[C@H]3Cc4ccc(O)cc4[C@@]1(CCN3CC1CC1)C2 [Compound 68, 2-((4bR,4′S,8aS,9R)-11-(cyclopropylmethyl)-3,8a-dihydroxy-2,5-dioxo-5,7,8,8a,9,10-hexahydrospiro[9,4b-(epiminoethano)phenanthrene-6,4′-imidazolidin]-3′-yl)acetonitrile]
EC50 (μ-opioid receptor [5]): 5.63 ± 1.74 nM
Emax (μ-opioid receptor [5]): 16 ± 1.15%
EC50 (κ opioid receptor [6]): 7.06 ± 1.53 nM
Emax (κ opioid receptor [6]): 108 ± 6.89%

CN1CC[C@]23C[C@@]4(CC[C@@]2(O)[C@H]1Cc1ccc(O)cc13)C(=O)NC(=O)N4CC1CC1 [Compound 66, (4bR,4′S,8aS,9R)-3′-(cyclopropylmethyl)-3,8a-dihydroxy-11-methyl-5,7,8,8a,9,10-hexahydrospiro[9,4b-(epiminoethano)phenanthren-6,4′-imidazolidine]-2′,5′-dione]
EC50 (μ-opioid receptor [5]): 76 ± 2.31 nM
Emax (μ-opioid receptor [5]): 98 ± 1.15%
EC50 (κ opioid receptor [6]): 4650 ± 302 nM
Emax (κ opioid receptor [6]): 103 ± 7.09%

O=C1NC(=O)[C@@]2(CC[C@@]3(O)[C@H]4Cc5ccc(O)cc5[C@@]3(CCN4CCF)C2)N1 [Compound 30]
EC50 (μ-opioid receptor [5]): 102 ± 30.2 nM
Emax (μ-opioid receptor [5]): 56.7 ± 4.33%
EC50 (κ opioid receptor [6]): 38.2 ± 12 nM
Emax (κ opioid receptor [6]): 99.7 ± 1.67%

COc1ccc2c(c1)[C@]13CCN(CC(F)(F)F)[C@H](C2)[C@]1(O)CC[C@@]1(C3)NC(=O)NC1=O [Compound 13, (4bR,4′S,8aS,9R)-8a-hydroxy-3-methoxy-11-(2,2,2-trifluoroethyl)-5,7,8,8a,9,10-hexahydrospiro[9,4b-(epiminoethano)phenanthrene-6,4′-imidazolidine]-2′,5′-dione]
EC50 (μ-opioid receptor [5]): > 20000 nM
Emax (μ-opioid receptor [5]): 10%
EC50 (κ opioid receptor [6]): > 20000 nM
Emax (κ opioid receptor [6]): 65 ± 8.74%
